Experimental data from patent publication US12077503B2, “Substituted cyclic amides and their use as herbicides” (FMC CORPORATION, priority 2015, dated 2024).

Columns and labels:
Assay type in all cases: in vivo
[1] = tested on: ivy-leaved morning glory (Ipomoea hederacea); assay: Test G Post-Emergence Protocol; conditions: Ipomoea, post-emergence, 312 h
Procedure, shortened: (§1)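 Damage was rated 13 days after treatment from 0 (none) to 100 (plant killed). Compound was applied as a spray at 15.625, 62.5 or 250 g/ha in 50:50 acetone/water containing 0.5% Tween 20, onto 8-day-old potted plants kept in a glasshouse (24/16 °C, 14 h light, 65% humidity).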

corn (Zea mays) [2] = assay: Test G Post-Emergence Protocol; conditions: Zea mays, post-emergence, 312 h
Procedure, shortened: as §1

[3] = tested on: barnyardgrass (Echinochloa crus-galli); assay: Test G Post-Emergence Protocol; conditions: Echinochloa crus-galli, post-emergence, 312 h
Procedure, shortened: as §1

[4] = tested on: redroot pigweed (Amaranthus retroflexus); assay: Test G Post-Emergence Protocol; conditions: Amaranthus retroflexus, post-emergence, 312 h
Procedure, shortened: as §1

[5] = tested on: velvetleaf (Abutilon theophrasti); assay: Test G Post-Emergence Protocol; conditions: Abutilon theophrasti, post-emergence, 312 h
Procedure, shortened: as §1

[6] = tested on: giant foxtail (Setaria faberi); assay: Test G Post-Emergence Protocol; conditions: Setaria faberi, post-emergence, 312 h
Procedure, shortened: as §1

[7] = tested on: ivy-leaved morning glory (Ipomoea hederacea); assay: Test G Pre-Emergence Protocol; conditions: Ipomoea, pre-emergence, 312 h, evaluated after 13 days
Procedure, shortened: (§2)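 Herbicidal effect was rated 13 days post-application on a scale where 100 equals total damage. Spraying took place the day after sowing, using 15.625, 62.5 or 250 g/ha of compound in a 50:50 acetone/water solution with 0.5% Tween 20.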

corn (Zea mays) [8] = assay: Test G Pre-Emergence Protocol; conditions: Zea mays, pre-emergence, 312 h, evaluated after 13 days
Procedure, shortened: as §2

[9] = tested on: barnyardgrass (Echinochloa crus-galli); assay: Test G Pre-Emergence Protocol; conditions: Echinochloa crus-galli, pre-emergence, 312 h, evaluated after 13 days
Procedure, shortened: as §2

[10] = tested on: redroot pigweed (Amaranthus retroflexus); assay: Test G Pre-Emergence Protocol; conditions: Amaranthus retroflexus, pre-emergence, 312 h, evaluated after 13 days
Procedure, shortened: as §2

[11] = tested on: velvetleaf (Abutilon theophrasti); assay: Test G Pre-Emergence Protocol; conditions: Abutilon theophrasti, pre-emergence, 312 h, evaluated after 13 days
Procedure, shortened: as §2

[12] = tested on: giant foxtail (Setaria faberi); assay: Test G Pre-Emergence Protocol; conditions: Setaria faberi, pre-emergence, 312 h, evaluated after 13 days
Procedure, shortened: as §2

## COc1c(Cl)ccc([C@H]2CNC(=O)[C@@H]2C(=O)Nc2cccc(F)c2F)c1F (racemic) [Compound 1472]
[1]; 15.625 g ai/ha, evaluated after 13 days (100=total damage to plant; 0=no damage to plant), read-out: Morningglory, Ivy-leaved damage rating
  pest or weed control at 15.625 g/ha: 20%
[1]; 62.5 g ai/ha, evaluated after 13 days, read-out: Morningglory, Ivy-leaved damage rating (100=total damage to plant; 0=no damage to plant)
  pest or weed control at 62.5 g/ha: 20%
[1]; 250 g ai/ha, evaluated after 13 days, read-out: damage to plant, Morningglory, Ivy-leaved (100=total damage to plant; 0=no damage to plant)
  pest or weed control at 250 g/ha: 20%
Corn (Zea mays) [2]; 15.625 g ai/ha, evaluated after 13 days (100=total damage to plant; 0=no damage to plant), read-out: Corn damage rating
  plant injury at 15.625 g/ha: 10%
Corn (Zea mays) [2]; 62.5 g ai/ha, evaluated after 13 days, read-out: Corn damage rating (100=total damage to plant; 0=no damage to plant)
  plant injury at 62.5 g/ha: 20%
Corn (Zea mays) [2]; 250 g ai/ha, evaluated after 13 days, read-out: damage to plant, Corn (100=total damage to plant; 0=no damage to plant)
  plant injury at 250 g/ha: 40%
[3]; 15.625 g ai/ha, evaluated after 13 days (100=total damage to plant; 0=no damage to plant), read-out: Barnyardgrass damage rating
  pest or weed control at 15.625 g/ha: 10%
[3]; 62.5 g ai/ha, evaluated after 13 days, read-out: Barnyardgrass damage rating (100=total damage to plant; 0=no damage to plant)
  pest or weed control at 62.5 g/ha: 30%
[3]; 250 g ai/ha, evaluated after 13 days, read-out: damage to plant, Barnyardgrass (100=total damage to plant; 0=no damage to plant)
  pest or weed control at 250 g/ha: 50%
[4]; 15.625 g ai/ha, evaluated after 13 days (100=total damage to plant; 0=no damage to plant), read-out: Pigweed, Redroot damage rating
  pest or weed control at 15.625 g/ha: 0%
[4]; 62.5 g ai/ha, evaluated after 13 days, read-out: Pigweed, Redroot damage rating (100=total damage to plant; 0=no damage to plant)
  pest or weed control at 62.5 g/ha: 10%
[4]; 250 g ai/ha, evaluated after 13 days, read-out: damage to plant, Pigweed, Redroot (100=total damage to plant; 0=no damage to plant)
  pest or weed control at 250 g/ha: 10%
[5]; 15.625 g ai/ha, evaluated after 13 days (100=total damage to plant; 0=no damage to plant), read-out: Velvetleaf damage rating
  pest or weed control at 15.625 g/ha: 0%
[5]; 62.5 g ai/ha, evaluated after 13 days, read-out: Velvetleaf damage rating (100=total damage to plant; 0=no damage to plant)
  pest or weed control at 62.5 g/ha: 10%
[5]; 250 g ai/ha, evaluated after 13 days, read-out: damage to plant, Velvetleaf (100=total damage to plant; 0=no damage to plant)
  pest or weed control at 250 g/ha: 10%
[6]; 15.625 g ai/ha, evaluated after 13 days (100=total damage to plant; 0=no damage to plant), read-out: Foxtail, Giant damage rating
  pest or weed control at 15.625 g/ha: 10%
[6]; 62.5 g ai/ha, evaluated after 13 days, read-out: Foxtail, Giant damage rating (100=total damage to plant; 0=no damage to plant)
  pest or weed control at 62.5 g/ha: 50%
[6]; 250 g ai/ha, evaluated after 13 days, read-out: damage to plant, Foxtail, Giant (100=total damage to plant; 0=no damage to plant)
  pest or weed control at 250 g/ha: 70%
[7]; 15.625 g ai/ha, read-out: Morning-glory, Ivy-leaved damage rating (100=total damage to plant; 0=no damage to plant)
  pest or weed control at 15.625 g/ha: 0%
[7]; 62.5 g ai/ha, 100=total damage to plant, 0=no damage to plant, read-out: plant damage rating, Morningglory, Ivy-leaved
  pest or weed control at 62.5 g/ha: 0%
[7]; 250 g ai/ha, read-out: Morningglory, Ivy-leaved damage rating (100=total damage to plant; 0=no damage to plant)
  pest or weed control at 250 g/ha: 0%
Corn (Zea mays) [8]; 15.625 g ai/ha, read-out: Corn damage rating (100=total damage to plant; 0=no damage to plant)
  plant injury at 15.625 g/ha: 0%
Corn (Zea mays) [8]; 62.5 g ai/ha, 100=total damage to plant, 0=no damage to plant, read-out: plant damage rating, Corn
  plant injury at 62.5 g/ha: 0%
Corn (Zea mays) [8]; 250 g ai/ha, read-out: Corn damage rating (100=total damage to plant; 0=no damage to plant)
  plant injury at 250 g/ha: 20%
[9]; 15.625 g ai/ha, read-out: Barnyard grass damage rating (100=total damage to plant; 0=no damage to plant)
  pest or weed control at 15.625 g/ha: 10%
[9]; 62.5 g ai/ha, 100=total damage to plant, 0=no damage to plant, read-out: plant damage rating, Barnyardgrass
  pest or weed control at 62.5 g/ha: 40%
[9]; 250 g ai/ha, read-out: Barnyardgrass damage rating (100=total damage to plant; 0=no damage to plant)
  pest or weed control at 250 g/ha: 80%
[10]; 15.625 g ai/ha, read-out: Pigweed, Redroot damage rating (100=total damage to plant; 0=no damage to plant)
  pest or weed control at 15.625 g/ha: 0%
[10]; 62.5 g ai/ha, 100=total damage to plant, 0=no damage to plant, read-out: plant damage rating, Pigweed, Redroot
  pest or weed control at 62.5 g/ha: 0%
[10]; 250 g ai/ha, read-out: Pigweed, Redroot damage rating (100=total damage to plant; 0=no damage to plant)
  pest or weed control at 250 g/ha: 0%
[11]; 15.625 g ai/ha, read-out: Velvetleaf damage rating (100=total damage to plant; 0=no damage to plant)
  pest or weed control at 15.625 g/ha: 0%
[11]; 62.5 g ai/ha, 100=total damage to plant, 0=no damage to plant, read-out: plant damage rating, Velvetleaf
  pest or weed control at 62.5 g/ha: 0%
[11]; 250 g ai/ha, read-out: Velvetleaf damage rating (100=total damage to plant; 0=no damage to plant)
  pest or weed control at 250 g/ha: 0%
[12]; 15.625 g ai/ha, read-out: Foxtail, Giant damage rating (100=total damage to plant; 0=no damage to plant)
  pest or weed control at 15.625 g/ha: 10%
[12]; 62.5 g ai/ha, 100=total damage to plant, 0=no damage to plant, read-out: plant damage rating, Foxtail, Giant
  pest or weed control at 62.5 g/ha: 50%
[12]; 250 g ai/ha, read-out: Foxtail, Giant damage rating (100=total damage to plant; 0=no damage to plant)
  pest or weed control at 250 g/ha: 80%
